Assays:
[1] = system: KYSE140-MUT cells; assay: Cytotoxicity assay (Cell Trace Far Red) of CTLs from immunized Tg mice; assay type: in vivo, HLA-A2.1/K^b Tg mice; details: KYSE140-MUT group, E/T of 80:1, 4 h
Description: To investigate whether neoepitopes could induce a peptide-specific T cell response in vivo, HLA-A2.1/K^b Tg mice were used and immunized according to the procedure de-scribed previously. In brief, mutant peptides or WH-mutant peptides (100 μg per mouse) with CpG-ODN 1826 (30 μg per mouse) were injected s.c. in the back of HLA-A2.1/K^b Tg mice (five mice per group, randomly grouped) once a week for three weeks. The normal saline (NS) group was immunized s.c. only with CpG ODN 1826 (30 μg/mouse) once a week for three weeks. Five days after the last injection, spleen lymphocytes were isolated and cultured at the concentration of 5 × 10^6 cells/mL in RPMI 1640 medium. These cells were induced by the same mutant peptides (10 μg/mL) that were used for in vivo stimulation and mIL-2 (30 U/mL) for a week. Intracellular cytokine staining assay (ICS) and cytotoxic assay (E: T ratios = 20:1, 40:1, 80:1) were performed after a week induced in vitro [22].
The cytotoxicity of peptide-specific T cells stimulated by mutant peptides was tested by using Cell Trace Far Red (Thermo Scientific, USA). Transfected cells were suspended in PBS (1 × 10^6 cells/mL) and labelled with Cell Trace Far Red as follows: Control target cells and test target cells were marked by 50 μM and 1 mM Cell Trace Far Red, respectively, at 37 °C for 20 min, protected from light. After incubation, target cells were washed with complete media at 37 °C for 5 min. […] Subsequently, test target cells were mixed with control target cells in a tube, washed once, and analyzed by flow cytometry. Specific lysis (%) = (numbers of control target cells—numbers of test target cells)/numbers of control target cells × 100% [28, 29], where, for tumor cells, the control target cells refer to KYSE140-WT cells marked with 50 μM Cell Trace Far Red, and the test target cell refers to KYSE140-WT or KYSE140-MUT cells marked with 1 mM Cell Trace Far Red, respectively (peptide-specific T cells generated from donors G–K’s PBMCs in vitro or generated from spleen lymphocytes of HLA-A2.1/K^b Tg mice in vivo). […]

[2] = biological target: T1, peptide/HLA-A*0201 complex (Homo sapiens, UniProt P04439, D140Y/D185E/D98H/E176V/E277Q/G131W/G231S/I119V/I121R/I166T/I218V/L300P/L318F/N151K/N90K/P208A/P217A/Q86G/Q94H/R138H/R169H/T345S); assay: peptide/MHC complex stabilization assay on T2A2 cells; assay type: binding; details: T2A2 cells pulsed with 50 μg/mL peptide and 3 μg/mL β2-M 18 h, BFA 1 h; MFI at 0, 2, 4, 6 h; time of half losing MFI of 0 h
T1 construct: T2A2 cells (TAP-deficient HLA-A2 molecules overexpressing, cultured in IMDM medium); β2-M from Merck; host or cells: T2A2 cells
Description: For the stabilization test, T2A2 cells were pulsed with 50 μg/mL mutant peptide and 3 μg/mL β2-Microglobulin (β2-M, Merck, Kenilworth, NJ, USA) in IMDM (serum-free) medium for 18 h. After three times washing, free peptides were removed and brefeldin A (BFA, 10 μg/mL, BD Bioscience, San Diego, CA, USA) was added. BFA was removed after 1 h impeding, and the cells were incubated for additional time. Finally, T2A2 was marked with anti-human HLA-A2 PE-Cyanine7 for 30 min, then analyzed by FACS Calibur (BD Bioscience, USA). MFI of 0 h was set as 100%, and the time of half losing MFI of 0 h defined the dissociation complex 50 (DC50). DC50 was computed as follows: (MFI of 0 h-MFI of (2, 4, or 6 h))/MFI of 0 h × 100%.

[3] = system: KYSE140-MUT cells; assay: Intracellular cytokine assay with minigene-transfected tumor cells in vitro; assay type: cell-based, human; details: donors G–K; KYSE140/KYSE150 transfected with WT or MUT minigene; IFN-γ and granzyme B
Description: DCs involve and play an important role in initiating CD8^+ T cell response. Consequently, ten HLA-A2^+ healthy donors’ PBMCs were isolated, autologous DCs were generated, and CTLs were induced according to the procedure described previously. In brief, PBMCs were seeded at a density of 5 × 10^6 cells/well in a 6-well plate, and after 3 h, the non-adherent cells were removed and cryopreserved for future incubation with mature autologous DCs. Differentiation of the adherent cells into dendritic cells was induced by GM-CSF (100 ng/mL, #300-03, PeproTech, Rocky Hill, NJ, USA) and IL-4 (100 ng/mL; #200-04, PeproTech, USA), with replenishment every 2 days. On day 5, maturation of DCs was induced using 100 ng/mL LPS (#L4516, Sigma-Aldrich, St. Louis, MO, USA), and maturation was checked on day 8 by flow cytometry (BD FACSCelesta™) using markers for anti-human HLA-DR, anti-human CD80, and anti-human CD86. Then, mature DCs (1 × 10^5) were pulsed with each 10 μg /mL individual peptide or no peptides (control) for 2 h at 37 °C. Next, peptide-pulsed DCs were used to prime the previously cryopreserved autologous peripheral blood lymphocytes (PBLs) at a DC/PBL ratio of 1:10 using complete RPMI-1640 media supplemented with 100 IU/mL rhIL-2 (#200-02, PeproTech, USA) and 10 ng/mL rhIL-7 (#200-07, PeproTech, USA). Half of the feeding medium was replenished every 2 days. After 7 days, PBLs were restimulated with freshly pulsed autologous DCs every 7 days.
Then two vectors were transduced into KYSE140 (HLA-A2^+) and KYSE150 (HLA-A2^−) to get KYSE140-MUT (HLA-A2^+, MUT peptide^+), KYSE140-WT (HLA-A2^+, MUT peptide^−), KYSE150-MUT (HLA-A2^−, MUT peptide^+) and KYSE150-WT (HLA-A2^−, MUT peptide^−) cells (see Supplementary Materials for details).
As for the transfected cells serving as target cells in the in vitro investigation, peptide-specific T cells (from HLA-A2^+ healthy donors G–K) induced by MUT peptides were co-cultured with tumor cell lines transfected with WT or MUT minigenes in IMDM medium in the presence of BFA for 5 h. […]

| DC50 (dissociation complex 50) [2] | Sequence | lysis rate (specific lysis) [1] | processing and presentation of MUT peptide by transfected cells, recognized by CTLs [3] |
| --- | --- | --- | --- |
| >6 h | ILWRQDINL [NFE2L2-D13N] | 69.5% | endogenously processed and presented by transfected cells |
| >6 h | LLGPNSFEV [TP53-R267P] | 71.5% | endogenously processed and presented by transfected cells |
| >4 h | QVTDFLAPL [PCLO-E4090Q] | 76.7% | endogenously processed and presented by transfected cells |
